ChEMBL document CHEMBL4680247, “Design, synthesis, and biological evaluation of 3-amino-2-oxazolidinone derivatives as potent quorum-sensing inhibitors of Pseudomonas aeruginosa PAO1” (Eur J Med Chem, 2020)
Values after ≈ are worked out from the molar mass of the structure shown. Active and inactive are the calls of the source. The rule behind the calls is not given here.

Tests used:
[1] = tested on: Chromobacterium violaceum; assay: Antibacterial activity against Chromobacterium violaceum CV026 mini-Tn5 mutant; assay type: functional, organism-based
[2] = tested on: Chromobacterium violaceum; assay: Inhibition of quorum sensing in Chromobacterium violaceum CV026 mini-Tn5 mutant at 2.5 to […] after 12 hrs in presence of C6-HSL
[3] = Inhibition of quorum sensing in Chromobacterium violaceum CV026 mini-Tn5 mutant after 12 hrs in presence of C6-HSL
[4] = tested on: Pseudomonas aeruginosa; assay: Antibacterial activity against Pseudomonas aeruginosa PAO1 planktonic cells assessed as reduction in bacterial growth after 18 hrs by resazurin dye based assay; conditions: PAO1, 18 h
[5] = tested on: Pseudomonas aeruginosa; assay: Antibacterial activity against Pseudomonas aeruginosa PAO1 biofilm cells assessed as reduction in bacterial growth after 2 days by resazurin dye based assay; conditions: PAO1, 48 h
[6] = tested on: Pseudomonas aeruginosa; assay: Antibacterial activity against Pseudomonas aeruginosa PAO1 infected in Caenorhabditis elegans N2 strain assessed as increase in Caenorhabditis elegans survival rate at 0.25 ug/ml after 120 hrs relative to control; assay type: functional; conditions: dose 0.25 µg/ml
[7] = tested on: Pseudomonas aeruginosa; assay: Ratio of MIC for antibacterial activity against Pseudomonas aeruginosa PAO1 biofilm cells to antibacterial activity against Pseudomonas aeruginosa PAO1 planktonic cells; assay type: functional
[8] = tested on: Pseudomonas aeruginosa; assay: Antibacterial activity against Pseudomonas aeruginosa PAO1 infected in Caenorhabditis elegans N2 strain assessed as reduction in bacterial growth at 0.25 ug/ml after 120 hrs; assay type: functional, organism-based; conditions: dose 0.25 µg/ml
[9] = tested on: Pseudomonas aeruginosa; assay: Antibacterial activity against Pseudomonas aeruginosa PAO1 infected in Caenorhabditis elegans N2 strain assessed as increase in Caenorhabditis elegans survival rate at 0.25 ug/ml up to 240 hrs relative to control; assay type: functional; conditions: dose 0.25 µg/ml; time hrs <=240
[10] = tested on: Pseudomonas aeruginosa; assay: Antibacterial activity against Pseudomonas aeruginosa PAO1 biofilm cells assessed as reduction in microbial growth under sonication at 0.25 ug/ml after 6 days; assay type: functional, organism-based; conditions: dose 0.25 µg/ml, time 6.0 day
[11] = tested on: Pseudomonas aeruginosa; assay: Antibacterial activity against Pseudomonas aeruginosa PAO1 infected in Caenorhabditis elegans N2 strain assessed as increase in Caenorhabditis elegans survival rate at 162.5 uM after 120 hrs relative to control; assay type: functional
[12] = tested on: Pseudomonas aeruginosa PAO1; assay: Inhibition of quorum sensing RhlAB in Pseudomonas aeruginosa PAO1 assessed as reduction in rhamnolipid level at 162.5 uM after 48 hrs by sulfuric acid-orcinol method relative to control
[13] = tested on: Pseudomonas aeruginosa; assay: Synergistic antibacterial activity against Pseudomonas aeruginosa PAO1 biofilm cells assessed as fold change in MPEM MIC by checker board assay; assay type: functional
[14] = tested on: Pseudomonas aeruginosa; assay: Antibacterial activity against Pseudomonas aeruginosa ATCC 27853 planktonic cells assessed as reduction in bacterial growth after 18 hrs by resazurin dye based assay; assay type: functional
[15] = tested on: Pseudomonas aeruginosa; assay: Antibacterial activity against Pseudomonas aeruginosa PAO1 infected in Caenorhabditis elegans N2 strain assessed as increase in Caenorhabditis elegans survival rate at 162.5 uM up to 240 hrs relative to control; assay type: functional; conditions: time hrs <=240
[16] = tested on: Pseudomonas aeruginosa PAO1; assay: Inhibition of quorum sensing lasB in Pseudomonas aeruginosa PAO1 assessed as reduction in elastase level at 20 to 162.5 uM after 16 hrs by elastin Congo red method; conditions: dose 20-162.5 µM
[17] = tested on: Pseudomonas aeruginosa PAO1; assay: Inhibition of quorum sensing lasB in Pseudomonas aeruginosa PAO1 assessed as reduction in elastase level at 162.5 uM after 16 hrs by elastin Congo red method relative to control
[18] = tested on: Pseudomonas aeruginosa PAO1; assay: Inhibition of quorum sensing las in Pseudomonas aeruginosa PAO1 assessed as reduction in protease level at 20 to 162.5 uM after 16 hrs; conditions: dose 20-162.5 µM
[19] = tested on: Pseudomonas aeruginosa PAO1; assay: Inhibition of quorum sensing RhlAB in Pseudomonas aeruginosa PAO1 assessed as reduction in rhamnolipid level at 20 to 162.5 uM after 48 hrs by sulfuric acid-orcinol method; conditions: dose 20-162.5 µM
[20] = tested on: Pseudomonas aeruginosa PAO1; assay: Inhibition of quorum sensing Rhl/PQS in Pseudomonas aeruginosa PAO1 assessed as reduction in pyocyanin level at 20 to 162.5 uM after 16 hrs; conditions: dose 20-162.5 µM
[21] = tested on: Pseudomonas aeruginosa; assay: Inhibition of biofilm formation in Pseudomonas aeruginosa PAO1 at 162.5 uM after 20 hrs by crystal violet assay relative to control; assay type: functional
[22] = tested on: Pseudomonas aeruginosa; assay: Inhibition of biofilm formation in Pseudomonas aeruginosa PAO1 at 10 to 325 uM after 20 hrs by crystal violet assay relative to control; assay type: functional; conditions: dose 10-325 µM
[23] = tested on: Pseudomonas aeruginosa PAO1; assay: Inhibition of quorum sensing las in Pseudomonas aeruginosa PAO1 assessed as reduction in protease level at 162.5 uM after 16 hrs
[24] = tested on: Pseudomonas aeruginosa PAO1; assay: Inhibition of quorum sensing system in Pseudomonas aeruginosa PAO1 assessed as reduction in swarming motility after 24 hrs; conditions: dose 20-162.5 µM
[25] = tested on: Pseudomonas aeruginosa; assay: Inhibition of biofilm formation in Pseudomonas aeruginosa PAO1after 20 hrs by crystal violet assay; assay type: functional, organism-based; conditions: PAO1, dose 10-325 µM
[26] = tested on: Pseudomonas aeruginosa; assay: Antibacterial activity against Pseudomonas aeruginosa PAO1 biofilm cells assessed as reduction in microbial growth at 10 uM after 6 days in presence of MPEM; assay type: functional, organism-based; conditions: time 6.0 day
[27] = tested on: Pseudomonas aeruginosa PAO1; assay: Inhibition of quorum sensing Rhl/PQS in Pseudomonas aeruginosa PAO1 assessed as reduction in pyocyanin level at 162.5 uM after 16 hrs relative to control
[28] = tested on: Pseudomonas aeruginosa; assay: Antibacterial activity against Pseudomonas aeruginosa PAO1 biofilm cells assessed as reduction in microbial growth at 10 uM after 6 days; assay type: functional, organism-based; conditions: time 6.0 day
[29] = tested on: Pseudomonas aeruginosa; assay: Antibacterial activity against Pseudomonas aeruginosa PAO1 infected in Caenorhabditis elegans N2 strain assessed as reduction in bacterial growth at 162.5 uM after 120 hrs; assay type: functional, organism-based
[30] = tested on: Pseudomonas aeruginosa; assay: Antibacterial activity against Pseudomonas aeruginosa ATCC 27853 biofilm cells assessed as reduction in bacterial growth after 2 days by resazurin dye based assay; assay type: functional; conditions: ATCC 27853, 48 h, time 2 day
[31] = tested on: Pseudomonas aeruginosa; assay: Synergistic antibacterial activity against Pseudomonas aeruginosa PAO1 biofilm cells assessed as FICI in presence of MPEM by checker board assay; assay type: functional

O=C(CCCCOc1ccc(F)cc1)NN1CCOC1=O
Activity [1]: inactive | inhibition [2]: Active | IC50 [3]: 23.1 µM

O=C(CCCCCCOc1ccc(Br)cc1Br)NN1CCOC1=O
Activity [1]: inactive

O=C(CCCOc1ccc([N+](=O)[O-])cc1)NN1CCOC1=O
Activity [1]: inactive | inhibition [2]: Active | IC50 [3]: 21.3 µM

O=C(CCCCCCOc1ccc(Cl)cc1)NN1CCOC1=O
Activity [1]: inactive

CCCCCCCCCC(=O)N[C@H]1CCOC1=O
IC50 [3]: 0.13 µM

NCC[C@H](O)C(=O)N[C@@H]1C[C@H](N)[C@@H](O[C@H]2O[C@H](CN)[C@@H](O)[C@H](O)[C@H]2O)[C@H](O)[C@H]1O[C@H]1O[C@H](CO)[C@@H](O)[C@H](N)[C@H]1O [AMIKACIN]
MIC [4]: 4 µg/mL (≈ 6.83 µM) | MIC [5]: 16 µg/mL (≈ 27.3 µM)

O=C(CCCCCCOc1ccc(Br)cc1)NN1CCOC1=O
Activity [1]: inactive

O=C(CCCCCCSc1ccc(Cl)cc1)NN1CCOC1=O
Activity [1]: inactive

O=C(CCCOc1cc(F)cc(F)c1)NN1CCOC1=O
Activity [1]: inactive | inhibition [2]: Active | IC50 [3]: 61.6 µM

C[C@@H](O)[C@H]1C(=O)N2C(C(=O)O)=C(S[C@@H]3CN[C@H](C(=O)N(C)C)C3)[C@H](C)[C@H]12 [MEROPENEM]
Activity [6]: 13.33% | MIC [4]: 0.25 µg/mL (≈ 0.652 µM) | MIC [5]: 8 µg/mL (≈ 20.9 µM) | Ratio [7]: 32 | Activity [8]: Active | Activity [9]: 15.67%

O=C(CCCCCOc1ccc(Cl)cc1)NN1CCOC1=O
Activity [1]: inactive | inhibition [2]: Active | IC50 [3]: 32.8 µM

O=C(CCCOc1ccccc1F)NN1CCOC1=O
Activity [1]: inactive | inhibition [2]: Active | IC50 [3]: 40.9 µM

O=C(CCCSc1ccc(Cl)cc1)NN1CCOC1=O
Activity [1]: inactive | inhibition [2]: Active | IC50 [3]: 6.84 µM

O=C(CCCOc1cccc(F)c1)NN1CCOC1=O
Activity [1]: inactive | inhibition [2]: Active | IC50 [3]: 15.5 µM

O=C(CCCCCCOc1ccc([N+](=O)[O-])cc1)NN1CCOC1=O
Activity [1]: inactive

O=C(CCCCOc1cccc(F)c1)NN1CCOC1=O
Activity [1]: inactive | inhibition [2]: Active | IC50 [3]: 63.6 µM

CC(C)(O/N=C(\C(=O)N[C@@H]1C(=O)N2C(C(=O)[O-])=C(C[n+]3ccccc3)CS[C@H]12)c1csc(N)n1)C(=O)O [CEFTAZIDIME]
MIC [4]: 1 µg/mL (≈ 1.83 µM) | MIC [5]: 2 µg/mL (≈ 3.66 µM)

O=C(CCCCOc1ccc(Cl)cc1)NN1CCOC1=O
Activity [1]: inactive | inhibition [2]: Active | IC50 [3]: 39.5 µM

O=C(CCCOc1ccc(Br)cc1)NN1CCOC1=O
Activity [10]: Active | Activity [11]: 16% | inhibition [12]: 57.9% | fold change (FC) [13]: 8 | MIC [14]: > 1110 µg/mL | Activity [15]: 18.33% | inhibition [16]: Active | inhibition [17]: 16.2% | MIC [4]: > 1110 µg/mL | inhibition [18]: Active | Activity [1]: inactive | MIC [5]: > 1110 µg/mL | inhibition [2]: Active | inhibition [19]: Active | inhibition [20]: Active | inhibition at 162.5 µM [21]: 40.4% | inhibition (INH) [22]: 17.67% | inhibition [23]: 14.9% | inhibition [24]: Dose-dependent effect | inhibition [25]: Dose-dependent effect | Activity [26]: Active | inhibition [27]: 22.5% | Activity [28]: inactive | IC50 [3]: 3.69 µM | Activity [29]: Active | MIC [30]: > 1110 µg/mL | fractional inhibitory concentration index (FICI) [31]: <0.5

O=C(CCCOc1cccc(Cl)c1)NN1CCOC1=O
Activity [1]: inactive | inhibition [2]: Active | IC50 [3]: 38.1 µM

O=C(CCCOc1ccc(F)cc1F)NN1CCOC1=O
Activity [1]: inactive | inhibition [2]: Active | IC50 [3]: 19.6 µM

O=C(O)c1cn(C2CC2)c2cc(N3CCNCC3)c(F)cc2c1=O [CIPROFLOXACIN]
MIC [4]: 0.08 µg/mL (≈ 0.241 µM)

O=C(CCCOc1ccc(F)cc1)NN1CCOC1=O
Activity [1]: inactive | inhibition [2]: Active | IC50 [3]: 11 µM

NC[C@H]1O[C@H](O[C@H]2[C@H](O)[C@@H](O[C@H]3O[C@H](CO)[C@@H](O)[C@H](N)[C@H]3O)[C@H](N)C[C@@H]2N)[C@H](N)C[C@@H]1O [TOBRAMYCIN]
MIC [4]: 2 µg/mL (≈ 4.28 µM) | MIC [5]: 8 µg/mL (≈ 17.1 µM)
